Data from paper PMC11637378, “Optogenetic screening of MCT1 activity implicates a cluster of non-steroidal anti-inflammatory drugs (NSAIDs) as inhibitors of lactate transport” (PLOS ONE, 2024).

Tests used:
[1] = system: parent strain (SAWy518)
[2] = system: parent strain (SAWy518); assay: microbe, parasite or virus in culture; design: species or system Saccharomyces cerevisiae SAWy518; Off-target growth counter-screen, OD600 as per cent of untreated wells, strain lacking MCT1; settings: 18.5 h; sheet Primary Screen - final;; off-target growth of parent strain, about 18 h
Protocol: Cells were grown for 18 hours prior to OD measurement. Fill represents manual compound grouping based on compound class or target. OD600 is reported in Tecan units. […] The drug library used in this study for the initial screen and rescreen was provided by the Small Molecule Screening Center at Princeton University, through a collaboration with Dr. Hahn Kim. […] Follow-up analysis (IC50 determinations) on library compounds was performed using compounds purchased from outside sources. […] Stocks were then diluted 100-fold into media containing 0.01 OD600 inoculation of yeast, to achieve the final concentrations listed. Where compounds were added manually (for example 10 μM AZD3965 addition) stock concentrations were diluted by a factor of 100-fold regardless of scale, resulting in a final concentration of 1% v/v DMSO which is well tolerated by yeast.

| SMILES | OffScreen_percentage [1] [percentage] | Offscreen_18hr [1] | Offscreen_24hr [1] | Offscreen_42hr [1] | Read_percentage [1] [percentage] | viability at 10 µM [2] [%] |
| --- | --- | --- | --- | --- | --- | --- |
| CC(C)(Oc1ccc(C2CC2(Cl)Cl)cc1)C(=O)O (stereo not drawn) [Ciprofibrate] | 92.3916 | 0.7456 | 0.866 | 0.9088 | 92.3916 | 92.4 |
| C=CC(C1=CC(=O)C=CC1=O)c1ccccc1 (stereo not drawn) [Dalbergione] | 104.3 | 0.8417 | 0.9214 | 0.9762 | 104.3 | 104 |
| O=C(O)c1ccc(-n2nc(-c3ccccc3O)nc2-c2ccccc2O)cc1 [Deferasirox] | 95.9727 | 0.7745 | 0.8724 | 0.9291 | 95.9727 | 96 |
| COc1ccc2c(c1)OCc1c-2oc2cc(OC)ccc12 [Dehydrovariabilin] | 93.7794 | 0.7568 | 0.8766 | 0.938 | 93.7794 | 93.8 |
| N#CC(c1ccc(Cl)cc1)c1c(Cl)cc(-n2ncc(=O)[nH]c2=O)cc1Cl (stereo not drawn) [Diclazuril] | 92.7138 | 0.7482 | 0.8733 | 0.9299 | 92.7138 | 92.7 |
| C/C=C(/C(=C/C)c1ccc(O)cc1)c1ccc(O)cc1 [Dienestrol] | 99.2565 | 0.801 | 0.8973 | 0.9599 | 99.2565 | 99.3 |
| CC/C(=C(/CC)c1ccc(O)cc1)c1ccc(O)cc1 [Diethylstilbestrol] | 102.565 | 0.8277 | 0.9171 | 0.9776 | 102.565 | 103 |
| C[C@@H]1CC[C@@]2(OC1)O[C@H]1[C@@H](O)[C@H]3[C@@H]4CC[C@H]5C[C@@H](O[C@@H]6O[C@H](CO)[C@H](O[C@@H]7O[C@H](CO)[C@@H](O)[C@H](O[C@@H]8OC[C@@H](O)[C@H](O)[C@H]8O)[C@H]7O[C@@H]7O[C@H](CO)[C@H](O)[C@H](O[C@@H]8O[C@H](CO)[C@@H](O)[C@H](O)[C@H]8O)[C@H]7O)[C@H](O)[C@H]6O)[C@H](O)C[C@]5(C)[C@H]4CC[C@]3(C)[C@H]1[C@@H]2C [Digitonin] | 103.408 | 0.8345 | 0.9181 | 0.9758 | 103.408 | 103 |
| O=C1Nc2ccc(Cl)cc2[C@@](C#CC2CC2)(C(F)(F)F)O1 [Efavirenz] | 96.803 | 0.7812 | 0.8701 | 0.9373 | 96.803 | 96.8 |
| C=CCOC(Cn1ccnc1)c1ccc(Cl)cc1Cl (stereo not drawn) [Enilconazole] | 100.372 | 0.81 | 0.8908 | 0.9485 | 100.372 | 100 |
| COc1cccc2c1[C@@H]1CN(CCCCn3c(=O)[nH]c4c(sc5ncc(-c6ccccc6)nc54)c3=O)C[C@@H]1CO2 [Fiduxosin] | 97.5341 | 0.7871 | 0.8863 | 0.944 | 97.5341 | 97.5 |
| OC(Cn1cncn1)(Cn1cncn1)c1ccc(F)cc1F [Fluconazole] | 99.6283 | 0.804 | 0.8953 | 0.9483 | 99.6283 | 99.6 |
| CC1(C)O[C@@H]2C[C@H]3[C@@H]4C[C@H](F)C5=CC(=O)C=C[C@]5(C)[C@H]4[C@@H](O)C[C@]3(C)[C@]2(C(=O)CO)O1 [Flunisolide] | 95.601 | 0.7715 | 0.8893 | 0.9469 | 95.601 | 95.6 |
| CCn1cc(-c2ccnc3[nH]c(-c4cccc(CN(C)C)c4)cc23)c(-c2ccc(NC(=O)N(C)C)cc2)n1 [GSK1070916] | 97.373 | 0.7858 | 0.8818 | 0.9396 | 97.373 | 97.4 |
| COc1ncc(-c2ccc3nccc(-c4ccnnc4)c3c2)cc1NS(=O)(=O)c1ccc(F)cc1F [GSK2126458] | 90.1487 | 0.7275 | 0.8997 | 0.9503 | 90.1487 | 90.1 |
| Cc1ccc(C(=O)Nc2ccc(CN3CCN(C)CC3)c(C(F)(F)F)c2)cc1C#Cc1cnc2[nH]ncc2c1 [GZD824] | 97.8563 | 0.7897 | 0.9473 | 1.0006 | 97.8563 | 97.9 |
| O=c1c(-c2ccc(O)cc2)coc2cc(O)cc(O)c12 [Genistein] | 100.644 | 0.8122 | 0.8948 | 0.9535 | 100.644 | 101 |
| CC[C@H](c1ccc(O)cc1)[C@@H](CC)c1ccc(O)cc1 [Hexestrol] | 99.6654 | 0.8043 | 0.9011 | 0.9595 | 99.6654 | 99.7 |
| O=c1cc(O)cc(/C=C/c2ccc(O)c(O)c2)o1 [Hispidin] | 97.0508 | 0.7832 | 0.8897 | 0.9435 | 97.0508 | 97.1 |
| C=CCc1ccc(O)c(-c2ccc(O)c(CC=C)c2)c1 [Honokiol] | 92.7385 | 0.7484 | 0.875 | 0.9267 | 92.7385 | 92.7 |
| CC(C)Cn1cnc2c(N)nc3ccccc3c21 [Imiquimod] | 103.68 | 0.8367 | 0.9119 | 0.9751 | 103.68 | 104 |
| CCCCC1=NC2(CCCC2)C(=O)N1Cc1ccc(-c2ccccc2-c2nnn[nH]2)cc1 [Irbesartan] | 100.942 | 0.8146 | 0.8985 | 0.9579 | 100.942 | 101 |
| O=C(/C=C/c1ccc(O)cc1)c1ccc(O)cc1O [Isoliquiritigenin] | 101.326 | 0.8177 | 0.9161 | 0.9757 | 101.326 | 101 |
